Assay results published in patent US5703241A, “Inhibitor of farnesyl-protein transferase” (Merck & Co., Inc., priority 1996, dated 1997).
pIC50: −log10 of the molar value.

What was measured:
[1] = test system: farnesyl-protein transferase in white blood cells; experiment: In vivo pharmacodynamic effects of farnesyl-protein transferase inhibitors in mammalian white blood cells; conditions: following a single administration of the compound
Method: In vivo pharmacodynamic effects of farnesyl-protein transferase inhibitors in mammalian white blood cells
The test mammal (beagle, Cynomolgus monkey, Rhesus monkey or African green monkey) is dosed by an IV, PO or suppository dose of a given concentration of drug in a suitable vehicle, such as IV:5% EtOH/citrate buffered saline, PO:50 mmol citric acid in water and suppository: 17.7% compound, 38% hydrous lactose; 44.3% PEG 8000.
Following drug dosing, the animals are bled at times t=0, 5 mins., 15 mins., 30 mins., 60 mins., 90 mins., 180 mins.(3 hours), 270 mins. (4.5 hours), 360 mins. (6 hours) and 1440 mins. (24 hours) by withdrawing 3 mL of blood into a sodium heparin vacutainer tube and placing the drawn blood immediately on ice. The vacutainer tubes are then spun at 2800 rpm in a table top centrifuge for 5 minutes at 4 degrees. Following the spin, the upper plasma layer is withdrawn from the vacutainer tube leaving an 1/8" of plasma on top of the blood pellet. The vacutainer tubes and plasma tubes are then put into dry ice for a quick freeze and once frozen, the samples are stored at -70° degrees.
For evaluation of the white blood cells, the frozen vacutainer tube is broken at the bottom utilizing a triangular metal file, and the frozen pellet of blood is removed (prior to breaking the tube it can warmed slightly in a 30° bath taking precautions not to melt the pellet). […]

human FPTase = biological target: T1, human FPTase (Homo sapiens, UniProt P49354+P49356); experiment: In vitro inhibition of human farnesyl-protein transferase ([3H]-FPP incorporation into Ras-CVIM); format: biochemical; conditions: 100 nM Ras-CVIM, 30 min, read-out: IC50, inhibitory activity against human FPTase
T1 construct: made in house

SMILES | inhibition of FPTase in white blood cells of mammals [1] | pIC50 (human FPTase)
COc1ccccc1CN(CC(=O)N[C@@H](CCSC)C(=O)OC(C)C)C[C@@H]1CCCN1C(=O)CCc1c[nH]cn1 [Example 1, N-[1-(1H-Imidazol-4-propionyl)pyrrolidin-2(S)-ylmethyl]-N-(2-methoxybenzyl) glycyl-methionine isopropyl ester] | sustained inhibition of FPTase in white blood cells | –
COc1ccccc1CN(CC(=O)N[C@@H](CCSC)C(=O)O)C[C@@H]1CCCN1C(=O)CCc1c[nH]cn1 [Example 2, N-[1-(1H-Imidazol-4-propionyl)pyrrolidin-2(S)-ylmethyl]-N-(2-methoxybenzyl)glycyl-methionine] | – | > 5.00
